In data set [1] the test system is human normal liver cells L-O2. Kind of data set: MTT cell proliferation (cytotoxicity) assay on human normal liver cells L-O2. Particulars: for pIC50: 48 h, pure compounds, MTT, n = 6, read-out: IC50 L-O2 (proliferation inhibition). The class given is cell-based. How it is done: (§1) Human normal liver cell L-O2 was kindly donated by the School of Life Science, Nanjing Normal University (Nanjing, China), and Human normal gastric epithelial cell GES-1 was kindly donated by the Department of Gastroenterology, Nanjing Drum Tower Hospital (Nanjing, China). Human normal liver cell LO-2 was routinely cultured in DMEM medium, supplemented with 10% (v/v) fetal bovine serum (FBS), 100 U/mL of penicillin and 100 μg/mL of streptomycin in a humidified atmosphere with 5% CO2 at 37 °C in an incubator. The culture medium was changed every day. Cultures were dissociated with 0.25% trypsase in phosphate buffered (pH 7.2~7.4) saline (PBS). Human normal gastric epithelial cell GES-1 was routinely cultured in DMEM medium, supplemented with 15% (v/v) calf serum (CS), 100 U/mL of penicillin and 100 μg/mL of streptomycin in a humidified atmosphere with 5% CO2 at 37 °C in an incubator. The culture medium was changed every two days. Cultures were dissociated with 0.25% trypsase and 0.05% EDTA in PBS (pH 7.2~7.4).
(§2) Cytotoxicity activity was assayed by MTT method as described. Briefly, cells were seeded in 96-well plates (Costar, Corning Co., Ltd., Beijing, China) with 100 μL at a concentration of cell suspension of 1.0 × 10_4 cells/mL (L-O2 cell) and 1.0 × 10_5 cells/mL (GES-1 cell), and incubated for 24 h at 37 °C in a humidified atmosphere of 5% CO2 in an incubator.
(§3) Every sample was solubilized in dimethyl sulfoxide (DMSO) to a concentration of 10 mg/mL and stored at 4 °C, then diluted with complete medium to the desired series concentration before treating the cells. Each solution was added into 96-well plates with 100 μL per well, repeated 6 well. Cells of the control groups were treated with the same volume of medium. The treated cells with different groups were incubated for 48 h at 37 °C in a humidified atmosphere of 5% CO2 in an incubator. Then, the treated cells were added with 20 μL/well of MTT (5.0 mg/mL), and incubated for a further 4 h in an incubator. The growth medium was removed from all the wells, and 150 μL DMSO were added to each well. The plates were shaken gently for 10 min to blend the mixture. The absorbance value of each well was read at 490 nm using a microplate reader. All experiments were performed at least three times. The inhibition rate of cell proliferation was calculated according to the formula:
(§4) (1) cell inhibition (%)=1-sample solution absorbance value/control absorbance value)×100%
(§5) The results were expressed as an inhibition ratio and IC50 (concentration that inhibits 50% of cell growth). The data were analyzed with software SPSS 15.0 (SPSS Inc.: Chicago, IL, USA). The anti-proliferation activity is more significant when the IC50 is smaller.

Data set [2] deals with human normal gastric epithelial cell GES-1. Kind of data set: MTT cell proliferation (cytotoxicity) assay on human normal gastric epithelial cells GES-1. It counts as cell-based. The following applies: for pIC50: pure compounds, MTT, 48 h, n = 6, read-out: IC50 GES-1 (proliferation inhibition); for inhibition activity on GES-1 cell lines growth vs control, dose-dependent: Figure 2. How it is done: as §1, §2, §3, §4, §5

[3] abbreviates: concentration range 0.78–12.5 μg/mL, Figure 3.
Setting [4] is: concentration range 0.78–12.5 μg/mL.
Where [5] appears, read: concentration range 0.39–6.25 μg/mL.

pIC50: −log10 of the molar value. Read-outs that look alike come from different tables or passages of the source.

The values that follow come from publication PMC3472742, “Bio-Guided Isolation of the Cytotoxic Terpenoids from the Roots of Euphorbia kansui against Human Normal Cell Lines L-O2 and GES-1” (International Journal of Molecular Sciences, 2012).

`C=C1[C@H](OC(C)=O)[C@@H](OC(=O)c2ccccc2)[C@@H](OC(C)=O)C(C)(C)[C@H]2O[C@](O)([C@H](C)C2=O)[C@@]2(OC(C)=O)C[C@H](C)[C@H](OC(C)=O)[C@@H]2[C@H]1OC(C)=O` [Compound 1, kansuinine A]: the pIC50 is less than 4.00 in data set [1] (Homo sapiens) and less than 4.00 in data set [2] (Homo sapiens, GES1, 48 h).
As for `C=C1C(OC(=O)c2ccccc2)C(O)C(=O)C(C)(C)C2OC2C(C)C(=O)C2(O)C(C1OC(=O)c1ccccc1)C(OC(C)=O)C(C)(O)C2OC(C)=O` (stereo not drawn) [Compound 2, kansuinine B], the pIC50 in data set [1] (Homo sapiens) is less than 4.00; in data set [2] (Homo sapiens, GES1, 48 h) it was less than 4.00.
As to `CC(=O)OC1C(C)=CC23C(=O)C(C=C(C)C(OC(=O)c4ccccc4)C12O)C1C(CC3C)C1(C)C` (stereo not drawn) [Compound 4, kansuiphorin C], the pIC50 was less than 4.00 in data set [1] (Homo sapiens) and less than 4.00 in data set [2] (Homo sapiens, GES1, 48 h).
For the compound `CCCCCC=CC=CC(=O)OC1C(C)=CC23C(=O)C(C=C(COC(C)=O)C(O)C12O)C1C(CC3C)C1(C)C` (stereo not drawn) [Compound 5, 3-O-(2′E,4′Z-Decadienoyl)-20-O-acetylingenol], the pIC50 is 4.91 in data set [1] (Homo sapiens) and 5.07 in data set [2] (Homo sapiens, GES1, 48 h). Further, in data set [1] (setting [3]), the “inhibition activity on L-O2 cell lines growth vs control, dose-dependent” value was “significant inhibition activity”. Moreover, the “inhibition activity on GES-1 cell lines growth vs control, dose-dependent” value in data set [2] (setting [4]) is “significant inhibition activity”.
Turning to `CCCCCC=CC=CC(=O)OC1C(C)=CC23C(=O)C(C=C(COC(C)=O)C(O)C12O)C1C(CC3C)C1(C)C` (stereo not drawn) [Compound 6, 3-O-(2′E,4′E-Decadienoyl)-20-O-acetylingenol], the “inhibition activity on L-O2 cell lines growth vs control, dose-dependent” value in data set [1] (setting [3]) was “significant inhibition activity”. Moreover, the pIC50 in data set [1] is 5.09; in data set [2], 5.18. Moreover, the “inhibition activity on GES-1 cell lines growth vs control, dose-dependent” value in data set [2] (setting [5]) is recorded as “significant inhibition activity”.
Regarding `CCCCCC=CC=CC(=O)OC1C(C)=CC23C(=O)C(C=C(C)C(O)C12O)C1C(CC3C)C1(C)C` (stereo not drawn) [Compound 7, 3-O-(2′E,4′Z-Decadienoyl)-20-deoxyingenol], the pIC50 in data set [1] (Homo sapiens) is 4.88; in data set [2] (Homo sapiens, GES1, 48 h) it was 5.45. The “inhibition activity on L-O2 cell lines growth vs control, dose-dependent” value in data set [1] (setting [3]) is reported as “significant inhibition activity”. Moreover, the “inhibition activity on GES-1 cell lines growth vs control, dose-dependent” value in data set [2] (setting [4]) is reported as “significant inhibition activity”.
As to `CC1=CC2C(=O)C3(C=C(C)C(OC(=O)c4ccccc4)C3(O)C1O)C(C)CC1C2C1(C)C` (stereo not drawn) [Compound 8, 3-O-Benzoyl-20-deoxyingenol], the pIC50 in data set [1] (Homo sapiens) was 4.15; in data set [2] (Homo sapiens, GES1, 48 h) it was 4.63. In addition, the “inhibition activity on L-O2 cell lines growth vs control” value in data set [1] (concentration range 3.125–50 μg/mL, Figure 3) is listed as “significant inhibition activity”. The “inhibition activity on GES-1 cell lines growth vs control, dose-dependent” value in data set [2] (setting [4]) was “significant inhibition activity”.
For the compound `CC1=CC23C(=O)C(C=C(C)C(OC(=O)c4ccccc4)C2(O)C1O)C1C(CC3C)C1(C)C` (stereo not drawn) [Compound 9, 5-O-Benzoyl-20-deoxyingenol], the pIC50 in data set [1] (Homo sapiens) is 4.46; in data set [2] (Homo sapiens, GES1, 48 h), 4.66. Moreover, the “inhibition activity on L-O2 cell lines growth vs control, dose-dependent” value in data set [1] (concentration range 1.56–25 μg/mL, Figure 3) is reported as “significant inhibition activity”. Further, the “inhibition activity on GES-1 cell lines growth vs control, dose-dependent” value in data set [2] (concentration range 1.56–25 μg/mL) is reported as “significant inhibition activity”.
Turning to `CC(C)=CCC[C@H](C)[C@@H]1CC[C@]2(C)C3=C(CC[C@@]12C)[C@@]1(C)CC[C@H](O)C(C)(C)C1CC3=O` (stereo partly drawn) [Compound 11, epi-kansenone], the melting point (in general, the temperature, or range, at which the solid turns liquid) was in the range of 116 to 118 °C. The pIC50 in data set [1] (Homo sapiens) was 4.75. Besides, the “inhibition activity on L-O2 cell lines growth vs control, dose-dependent” value in data set [1] (setting [3]) is “significant inhibition activity”. Moreover, the pIC50 in data set [2] (Homo sapiens, GES1, 48 h) is 5.09. In addition, the “inhibition activity on GES-1 cell lines growth vs control, dose-dependent” value in data set [2] (setting [5]) was “significant inhibition activity”.
As to `CC(C)=CCC[C@@H](C)[C@@H]1CC[C@]2(C)C3=C(CC[C@@]12C)[C@@]1(C)CC[C@H](O)C(C)(C)[C@@H]1CC3` [Compound 12, euphol], the pIC50 in data set [1] (Homo sapiens) is less than 4.00; in data set [2] (Homo sapiens, GES1, 48 h) it was less than 4.00.
